Measurements reported in patent US7786040B2, “4-cyclopropyl-1,2,3,-thiadiazole compound, agrohorticultural plant disease controlling agent and method of using the same” (Nihon Nohyaku Co., Ltd., priority 2005, dated 2010).

Key:
[1] = tested on: powdery mildew fungus (Blumeria graminis); test: Test Example 1: controlling effect by seed dressing against wheat powdery mildew; assay type: in vivo; details: 0.15% active ingredient based on weight of dry seeds, inoculated 25 days after sowing, investigated 7 days after inoculation
From the text: (§1) Seeds of wheat (cultivar: chihoku komugi) and a wettable powder prepared according to Formulation Example were placed in a vinyl bag, followed by adding thereto a small volume of water, and they were mixed to conduct seed dressing. On the day after this treatment, the seeds sowed in a plastic pot of 10 cm diameter, and cultivated in a greenhouse. Twenty five days after sowing, the seedlings thus obtained were inoculated with powdery mildew fungus (Blumeria graminis) by sprinkling. Seven days after inoculation, the seedlings were investigated and infection index was estimated according to the criterion shown below, after which the control efficacy (%) was calculated. In this occasion, infection index on the untreated plot was 8.0. As comparative examples, the following compounds described in JP-A-2001-10909 were evaluated. • I: 3′-chloro-4,4′-dimethyl-1,2,3-thiadiazole-5-carboxanilide • II: benzyl 4-isopropyl-1,2,3-thiadiazole-5-carboxylate • III: methyl 4-cyclopropyl-1,2,3-thiadiazole-5-carboxylate • IV: 4-cyclopropyl-1,2,3-thiadiazole-5-carboxylic acid Infection Index • 0: No infection. • 0.5: Lesion area percentage: less than 10% • 1: Lesion area percentage; 10 to less than 20% • 2: Lesion area percentage; 20 to less than 30% • 3: Lesion area percentage; 30 to less than 40% • 4: Lesion area percentage; 40 to less than 50% • 5: Lesion area percentage; 50 to less than 60% • 6: Lesion area percentage; 60 to less than 70% • 7: Lesion area percentage; 70 to less than 80% • 8: Lesion area percentage; 80 to less than 90% • 9: Lesion area percentage; 90 to less than 100% • 10: Lesion area percentage; 100% Control efficacy (%)={1-(infection index on treated plot/infection index on untreated plot)}×100 Rank of Control Efficacy • A: Control efficacy 100-90% • B: Control efficacy 89-80% • C: Control efficacy 79-60% • D: Control efficacy 59-0%

[2] = tested on: wheat (cultivar: Chihoku Komugi); test: Test Example 3: phytotoxicity for wheat by treatment of seeds (safety test on plant); assay type: in vivo; details: wheat seed dressing, 0.15% active ingredient based on weight of dry seeds; 7 and 14 days after sowing
Method: Seeds of wheat (cultivar: Chihoku Komugi) and a wettable powder prepared according to Formulation Example were placed in a vinyl bag, followed by adding thereto a small volume of water, and they were mixed to conduct seed dressing. On the day after this treatment, the seeds sowed in a plastic pot of 10 cm diameter, and cultivated in a greenhouse. Seven days and fourteen days after sowing, phytotoxicity for germination of the seeds and growth at the early stage were evaluated.

[3] = tested on: powdery mildew fungus (Blumeria graminis); test: Test Example 2: controlling effect by seed dressing against wheat powdery mildew, long-lasting effect; assay type: in vivo; details: 0.15% active ingredient based on weight of dry seeds, inoculated 50 days after sowing, investigated 7 days after inoculation
From the text: as §1
Seeds of wheat (cultivar: Chihoku Komugi) and a wettable powder prepared according to Formulation Example were placed in a vinyl bag, followed by adding thereto a small volume of water, and they were mixed to conduct seed dressing. On the day after this treatment, the seeds sowed in a plastic pot of 10 cm diameter, and cultivated in a greenhouse. Fifty days after sowing, the seedlings thus obtained were inoculated with powdery mildew fungus (Blumeria graminis) by sprinkling. Seven days after inoculation, the seedlings were investigated and infection index was estimated according to the criterion shown below, after which the control efficacy (%) was calculated. In this occasion, infection index on the untreated plot was 8.0. As comparative examples, the above-described compounds I, II, III and IV were evaluated.

| melting point [°C] | SMILES | Rank of control efficacy [1] | phytotoxicity for germination of the seeds and growth at the early stage [2] | Rank of control efficacy [3] |
| --- | --- | --- | --- | --- |
| – | O=C(OCc1cc(Cl)cc(Cl)c1)c1snnc1C1CC1 [1-30] | B or more | absolutely no phytotoxicity | – |
| – | COc1ccc(CNC(=O)c2snnc2C2CC2)cc1OC [1-166] | B or more | absolutely no phytotoxicity | – |
| 124 | N#Cc1ccccc1NC(=O)c1snnc1C1CC1 [1-100, 2′-cyano-4-cyclopropyl-1,2,3-thiadiazole-5-carboxanilide] | – | – | – |
| – | O=C(OCc1cccc(Cl)c1)c1snnc1C1CC1 [1-11] | B or more | absolutely no phytotoxicity | – |
| – | O=C(NS(=O)(=O)c1ccccc1)c1snnc1C1CC1 [1-121] | B or more | absolutely no phytotoxicity | – |
| 47 | COC(=O)c1snnc1C1CC1 [III, methyl 4-cyclopropyl-1,2,3-thiadiazole-5-carboxylate] | – | – | – |
| – | O=C(O)c1ccccc1NC(=O)c1snnc1C1CC1 [1-98, 2-(4-cyclopropyl-1,2,3-thiadiazol-5-ylcarbonylamino)benzoic acid] | B or more | absolutely no phytotoxicity | – |
| 158 to 159 | O=C(O)c1snnc1C1CC1 [Comparative compound IV, 4-cyclopropyl-1,2,3-thiadiazole-5-carboxylic acid] | – | delay germination and suppressed growth | B (Control efficacy 89-80%) |
| – | CCCCCCCCOC(=O)c1snnc1C1CC1 [1-8] | B or more | absolutely no phytotoxicity | – |
| – | COc1ccc(NC(=O)c2snnc2C2CC2)c(OC)c1 [1-96] | B or more | absolutely no phytotoxicity | – |
| – | CC(OC(=O)c1snnc1C1CC1)c1ccc(Cl)cc1 (stereo not shown) [1-44] | B or more | absolutely no phytotoxicity | – |
| – | COC(=O)c1ccc(COC(=O)c2snnc2C2CC2)cc1 [1-24] | B or more | absolutely no phytotoxicity | – |
| – | O=C(OCc1ccc(Cl)cc1)c1snnc1C1CC1 [1-12] | B or more | absolutely no phytotoxicity | – |
| 150 to 153 | Cc1ccc(NC(=O)c2snnc2C2CC2)cc1Cl [1-95, 3′-chloro-4-cyclopropyl-4′-methyl-1,2,3-thiadiazole-5-carboxanilide] | B or more | absolutely no phytotoxicity | – |
| – | O=C(NCc1ccccc1)c1snnc1C1CC1 [1-53] | B or more | absolutely no phytotoxicity | – |
| – | CC(C)(C)c1ccc(CNC(=O)c2snnc2C2CC2)cc1 [1-63] | B or more | absolutely no phytotoxicity | – |
| – | CC(C)Cc1csc(NC(=O)c2snnc2C2CC2)n1 [1-110] | B or more | absolutely no phytotoxicity | – |
